Data on 2 compounds can be found in patent publication US9422238B2, “ICMT inhibitors” (National University of Singapore, priority 2012, dated 2016).

Data set [1] concerns MDA-MB-231 human breast cells. As to conditions: earlier study; read-out: IC50 MDA-MB-231, previous value; cited from earlier work.
The subject of data set [2] is Human lung fibroblast IMR90 cells. The data set is described as follows: Cell viability on non-malignant cells (MTS, 72 h). The class given is cell-based. Conditions: IMR-90, Table 6, mean (SD), read-out: IC50 (μM) IMR90. The protocol: (§1) Cell viability was determined from the expression:
(§2) The plot was constrained to ≧0 and ≦100%.
Human lung fibroblast IMR90 cells were purchased from ATCC (Rockville, Md.) and grown in Eagle's Minimal Essential Media (EMEM, Sigma Aldrich, Singapore) at 37° C., 5% CO2. […] Seeding density was maintained at 4000 cells per well.

Data set [3] concerns the target T1, Isoprenylcysteine carboxyl methyltransferase (Icmt) (Homo sapiens, UniProt O60725).
T1 construct: made in house; host or cells: Sf9 (Spodoptera frugiperda) insect cells; membrane preparation provided by Prof PJ Casey (Duke University / Duke-NUS)
The data set is described as follows: Icmt inhibition, scintillation proximity assay with BFC and [3H]SAM. The class given is biochemical. As to conditions: Table 3, mean of two or more determinations (SD), read-out: IC50 Icmt. As to the method:
Isoprenylcysteine carboxyl methyltransferase (Icmt) was provided by Prof PJ Casey of Duke University, NC. S-Adenosylmethionine (SAM), magnesium chloride Hexahydrate (MgCl2), tartrazine, 4-(2-hydroxyethyl)-1-piperazineethanesulfonic acid (HEPES), dimethyl sulfoxide (DMSO) and dithiotreitol (DTT) were purchased from Sigma (Mo, USA). [^3H] S-Adenosylmethionine, [^3H] Biotin and Streptavidin PVT SPA Beads were purchased from PerkinElmer (Waltham, Mass.). Assays were performed in black small volume 384 well microtitre plates from PerkinElmer.
Stocks of Icmt membrane protein (30 μg/μL) stored at −80° C. were thawed at 37° C. and placed on ice. The Icmt membrane protein was diluted in assay buffer (70 mM HEPES, 100 mM NaCl, 5 mM Mg Cl2 and 3 mM DTT, pH 7.5) to a 0.03 μg/μL working concentration and added to the wells of a microtitre plate (5 μl/well). To each wells 20 μl of the reaction buffer was added. The reaction was initiated with the addition of 5 μL of substrate solution containing BFC (6 μM), SAM (3 μM) and 30 μCi/mL [^3H] SAM (all of these reagents were stored at −20° C., SAM reagents thawed on ice, BFC thawed at RT). The plate was incubated at 37° C. for 30 minutes. The reaction was stopped with the addition of 15 μL of stop solution containing SAM (150 μM) and Streptavidin SPA beads (20 mg/mL). Following overnight incubation at ambient temperature radioactivity was counted on a Microbeta Trilux™ (Perkin Elmer, Turku, Finland).
Sf9 (Spodoptera frugiperda ovarian) membranes containing recombinant Icmt were provided by Prof PJ Casey (Duke University, NC and Duke-NUS Graduate Medical School). S-Adenosylmethionine (SAM), magnesium chloride hexahydrate, tartrazine, 4-(2-hydroxyethyl)-1-piperazineethanesulfonic acid (HEPES) and dithiotreitol (DTT) were purchased from Sigma (Mo, USA). [^3H] S-Adenosylmethionine, [^3H] biotin and streptavidin PVT SPA Beads were purchased from PerkinElmer (Waltham, Mass.). Biotinylated farnesylcysteine was synthesized as described in an earlier report. Assays were performed in black 384-well microtitre plates from PerkinElmer.
A vial of Icmt membrane protein (30 μg/μL) stored at −80° C. was thawed at 37° C. and placed on ice. The protein was diluted in assay buffer (70 mM HEPES, 100 mM NaCl, 5 mM MgCl2, 3 mM DTT, pH 7.5) to 0.03 μg/μL and aliquots were added to each well (5 μL/well), followed by 20 μL of the assay buffer. The reaction was initiated by adding 5 μL of a solution containing biotinylated BFC (6 μM), SAM (3 μM) and 30 μCi/mL [^3H] SAM. These reagents were stored at −20° C. and thawed on ice (SAM, [^3H] SAM) or at room temperature (BFC). The plate was incubated at 37° C. for 30 minutes after which the reaction was quenched by adding 15 μL of a solution comprising SAM (150 μM) and streptavidin SPA beads (20 mg/mL). After overnight incubation at ambient temperature, radioactivity was counted (Microbeta Trilux™, Perkin Elmer, Turku, Finland). The degree of inhibition was assessed from the radioactivity obtained in presence of test compound compared to that obtained from the control sample […]. Two independent determinations were made for each test compound.
Background: Scintillation proximity formats need no separation of bound from free tracer.

The test system of data set [4] is Human hepatocellular carcinoma HepG2 cells. The data set is described as follows: Cell viability (MTS, 72 h). Conditions: HepG2, Table 6, mean (SD), read-out: IC50 (μM) HepG2. The class given is cell-based. The protocol:
as §1, §2
Human hepatocellular carcinoma HepG2 and human pancreatic cancer MIA PACA II cells were obtained from ATCC (Rockville, Md.). They were grown in DMEM (high glucose, Invitrogen) supplemented with 10% FBS, 50 μg/mL penicillin and 50 μg/mL streptomycin, 37° C., 5% CO2 until they reached 80-90% confluency, after which they were subcultured. Passage numbers were kept within 7-14 passages for both cell types.

The test system of data set [5] is MDA-MB-231 human breast cells. In words: Antiproliferative activity / cell viability (MTS, 72 h). Conditions: Homo sapiens.
Experimental: (§4) The relative number of the live cells was determined using the CellTiter® 96 AQueous One Solution Cell Proliferation Assay (Promega). Determinations were made in duplicates or triplicates.
Human breast cancer MDA-MB231, liver cancer HepG2 and lung fibroblast cells were purchased from ATCC (Rockville, Md.). MDA-MB231 cells and IMR-90 cells were grown in DMEM (Sigma Aldrich, Singapore) and EMEM (Sigma Aldrich, Singapore) respectively at 37° C., 5% CO2. DMEM was supplemented with 10% fetal bovine serum (Invitrogen, heat treated at 65 deg C., 30 min), 50 units/L penicillin-G and 50 μg/mL streptomycin. EMEM was supplemented with 10% fetal bovine serum (heat treated as above), 100 mg/L penicillin-G and 100 μg/mL streptomycin.
Cell viability was assessed using CellTitre 96® Aqueous One Solution (Promega, Madison, Wis.) containing the tetrazolium salt 3-(4,5-dimethylthiazol-2-yl)-5-(3-carboxymethoxyphenyl)-2-(4-sulfophenyl)-2H-tetrazolium (MTS). […] Final concentration of DMSO per well was maintained at 0.5% v/v. […] Cell viability was determined from the expression:
The plot was constrained to ≧0 and ≦100%. At least 3 independent determinations of IC50 were made using two different stock solutions of test compound.
The nature of data set [6]: physchem. Conditions: pH 7.4, aqueous buffer, kinetic from dmso stock. As to the method: The turbid solution was delivered to the filter plate, agitated for a specific time period and then filtered. The concentration of dissolved compound in the filtrate was determined by uv spectroscopy and referred to pre-constructed calibration curves for solubility determination.
(§3) Determination of aqueous solubility was carried out on Multiscreen® Solubility filter plates (Millipore-MSSLBPC10) from Millipore Corporation (MA, USA). The protocol (PC2445EN00, Millipore Corporation) was followed. Briefly, various concentrations of the test compound were prepared in Universal buffer (pH 7.4)/acetonitrile/DMSO. The UV absorbances of these solutions were obtained at a pre-determined wavelength and used to construct a calibration curve for the test compound. Next, a stock solution of the test compound in DMSO was prepared at a known concentration, diluted with Universal buffer (pH 7.4), dispensed into wells in the Multiscreen Solubility filter plate, and agitated for a period of time. The suspension is then filtered, the filtrate collected and diluted with acetonitrile to give the same solvent composition used to prepare the calibration solutions. The absorbance of the diluted filtrate was then read at the predetermined wavelength and the concentration of the filtrate (taken here to be equivalent to the solubility of the test compound) was determined from the calibration curve.
as §3, with “24 hours at room temperature (25 deg C.). […]” for “a period of time.”, “was” for “is then”, “was” for “was then”, “(equivalent” for “(taken here to be equivalent”, “curve. […] LCMS determinations were made on an Agilent 1200 Series HPLC linked to a AB Sciex Instruments 3200 Q TRAP LC/MS/MS. Separations were carried out on a Phenomenex Luna column [3u, C18(2), 100A, 5×4.6 mm]. […] Quantification was based on the ratio of peak areas of the daughter ion and the mother ion (M+H), normalized against the same ratio obtained for the internal standard. The solubility determinations were carried out in triplicates or more from two different stock solutions.” for “curve.”

In data set [7] the test system is PC3 Prostrate cancer cells. In words: Antiproliferative activity / cell viability (MTS, 72 h). In kind it is cell-based, human. As to conditions: Homo sapiens.
Experimental: as §4
Data set [8] concerns several malignant cell lines. As to conditions: irrespective of Ras status; cited from earlier work.

Read-outs that look alike come from different tables or passages of the source. Bounds are passed on as bounds.

T1 sequence (O60725 whole entry, species assumed): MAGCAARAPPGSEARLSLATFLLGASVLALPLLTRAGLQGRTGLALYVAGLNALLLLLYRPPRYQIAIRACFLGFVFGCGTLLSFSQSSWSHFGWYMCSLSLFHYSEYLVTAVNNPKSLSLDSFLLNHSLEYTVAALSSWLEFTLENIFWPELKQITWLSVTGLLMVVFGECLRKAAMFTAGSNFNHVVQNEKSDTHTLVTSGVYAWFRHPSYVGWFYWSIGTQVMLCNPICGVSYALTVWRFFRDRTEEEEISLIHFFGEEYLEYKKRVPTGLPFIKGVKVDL

A word on the solubility: it is the dissolved amount per volume that the medium holds. Consider `CCCCCCCCn1cc(CN(CC)CC)c2cc(-c3cccc(C)c3)ccc21` [Compound 8-1], for which the IC50 in data set [1] was 3.6 µM; in data set [2], 5.26 µM; in data set [3] (listed as 8.1) it was 2.18 µM; in data set [3], 2.2 µM; in data set [4], 6.57 µM; in data set [5] (MDA-MB-231, 72 h, read-out: IC50MDA-MB-231 (μM)), 7.9 µM. In addition, the IC50 in data set [5] (MDA-MB-231, read-out: IC50 (μM) MDA MB 231) was 7.9 µM; in data set [7] (PC-3M, Table 3, 72 h, mean (SD), read-out: IC50 PC3) it was 6.31 µM; in data set [7] (Table 6, from earlier table, read-out: IC50 (μM) PC3), 6.31 µM. The solubility at 24 h in data set [6] (25 °C) was under 1 µM. Further, the solubility at 3 h in data set [6] was under 1 µM.
As a reminder, the GI50 is the concentration at which growth is held to half of that of the control. With `COc1cccc(NCCC2(c3ccccc3)CC(C)(C)OC(C)(C)C2)c1` [3-methoxy-N-[2-(2,2,6,6-tetramethyl-4-phenyltetrahydropyran-4-yl)ethyl]aniline], in data set [8], the GI50 is at least 0.3 µM.
